Experiments:
[1] = test system: GTRAP3-18 protein; assay: Western blot of GTRAP3-18 protein expression in HEK293 cell; assay type: cell-based; details: ratio to actin, oligonucleotide transiently introduced or 250 μM MeβCD, vs control (sense oligonucleotide)
Experimental: (§1) FIG. 1 Results obtained by examining influences of a GTRAP3-18 antisense oligonucleotide and methyl-β-cyclodextrin (MeβCD) against the expression of a GTRAP3-18 protein of an HEK293 cell. A GTRAP3-18 sense oligonucleotide (GTRAP3-18(S)) or an antisense oligonucleotide (GTRAP3-18(As)) was introduced into an HEK293 cell, or 250 μM of methyl-β-cyclodextrin (MeβCD) was made to act thereon. A) After homogenizing the cell, western blot was performed using an anti-EAAC1 antibody, an anti-GTRAP3-18 antibody and an anti-actin antibody. B) The results of the western blot were digitalized and indicated in terms of a ratio to actin. GTRAP3-18 decreased by the introduction of the GTRAP3-18 antisense oligonucleotide, and GTRAP3-18 increased by MeβCD.
(§2) By transiently introducing an antisense oligonucleotide of GTRAP3-18 into an HEK293 cell, the amount of GTRAP3-18 in the cell was decreased (FIG. 1). Next, the amount of intracellular glutathione was assayed by ThioGlo-1 (manufactured by Calbiochem). […] of the amount of GTRAP3-18 was confirmed by a western blot method. A cell into which a sense oligonucleotide had been introduced was used as a control group.
On the other hand, it was confirmed by a western blot method that when methyl-β-cyclodextrin (MeβCD) was added to HEK293 cell, the amount of GTRAP3-18 increased as compared with the control group (FIG. 1).

[2] = test system: EAAC1; assay: Western blot of EAAC1 amount in HEK293 cell; assay type: cell-based; details: ratio to actin, oligonucleotide introduced or 250 μM MeβCD
Experimental: as §1

[3] = test system: intracellular glutathione (GSH); assay: Amount of intracellular glutathione in HEK293 cell assayed by ThioGlo-1; assay type: cell-based; details: conditions of FIG. 1, vs control group
Experimental: FIG. 2 The amount of intracellular glutathione (GSH) was quantitatively determined under the conditions of FIG. 1. Glutathione increased by the introduction of the GTRAP3-18 antisense oligonucleotide, and glutathione decreased by MeβCD.
as §2

[4] = test system: GTRAP3-18 protein; assay: Western blot of GTRAP3-18 protein in mouse hippocampus after intraventricular administration; assay type: in vivo; details: administered in cerebral ventricle (siRNA 10 μg/h, after one week), vs control (buffer)
Experimental: (§3) FIG. 3 Results obtained by examining influences of GTRAP3-18 siRNA against the expression of a GTRAP3-18 protein of a mouse hippocampus cell. A) After homogenizing the cell, western blot was performed using an anti-GTRAP3-18 antibody. B) The results of the western blot were digitalized and indicated in terms of a ratio to the buffer administration. The amount of GTRAP3-18 decreased by the introduction of GTRAP3-18 siRNA.
(§4) FIG. 6 Results obtained by examining influences of methyl-β-cyclodextrin (MeβCD) against the expression of a GTRAP3-18 protein of mouse hippocampus. A) After homogenizing the cell, western blot was performed using an anti-EAAC1 antibody, an anti-GTRAP3-18 antibody and an anti-actin antibody. B) The results of the western blot were digitalized and indicated in terms of a ratio to actin. GTRAP3-18 increased by MeβCD.
(§5) siRNA against GTRAP3-18 was administered (10 μg/h) in a cerebral ventricle of a mouse.
On the other hand, when methyl-β-cyclodextrin (MeβCD) was administered in a cerebral ventricle of a mouse, the amount of GTRAP3-18 in the hippocampus cell increased as compared with the control group (FIG. 6).

[5] = test system: EAAC1 protein; assay: Western blot of EAAC1 protein in mouse hippocampus after intraventricular administration; assay type: in vivo; details: administered in cerebral ventricle, vs control (buffer)
Experimental: as §3, with “4” for “3”, “EAAC1” for “GTRAP3-18”, “an EAAC1” for “a GTRAP3-18”, “anti-EAAC1” for “anti-GTRAP3-18”
as §4, §5

[6] = test system: glutathione in hippocampus; assay: Amount of glutathione in mouse hippocampus (GSH reductase/DTNB, absorbance at 412 nm); assay type: in vivo; details: administered in cerebral ventricle, corrected by tissue weight, vs control
Source text: FIG. 5 Results obtained by quantitatively determining the amount of glutathione in hippocampus under the conditions of FIGS. 3 and 4. The amount of glutathione of hippocampus decreased by the intraventricular administration of EAAC1 siRNA, whereas the amount of glutathione increased by GTRAP3-18 siRNA.
FIG. 7 The amount of intracellular glutathione (GSH) was quantitatively determined under the conditions of FIG. 6. Glutathione decreased by MeβCD.
Next, after decreasing the amount of GTRAP3-18 or EAAC1 in the hippocampus cell, the amount of glutathione was assayed. That is, an extract from the hippocampus tissue was mixed with a reaction solution containing EDTA (ethylenediaminetetraacetic acid), GSH reductase, DTNB (5,5′-ditiobis-nitrobenzoic acid) and NADPH, and an absorbance at 412 nm was measured. After determining a concentration by using an absorbance of a GSH standard solution, it was corrected by a tissue weight.

[7] = listed as methyl-β-cyclodextrin (MeβCD)

methyl-β-cyclodextrin [MeβCD]
amount of GTRAP3-18 in the cell [1]: increased | amount of EAAC1 [2]: did not change | amount of intracellular glutathione (GSH) [3]: decreased | amount of intracellular glutathione (GSH) [3, 7]: significantly decreased | amount of GTRAP3-18 in hippocampus cell [4]: increased | amount of EAAC1 in hippocampus cell [5]: did not change | amount of glutathione in hippocampus [6]: decreased | amount of glutathione in hippocampus [6, 7]: significantly decreased

From patent publication US8551711B2, “Screening method of glutathione-increasing substance” (Teikyo University, priority 2006, dated 2013)
